This is an account of results in paper PMC10681007, “Targeted Degradation of XIAP is Sufficient and Specific to Induce Apoptosis in MYCN-overexpressing High-risk Neuroblastoma” (Cancer Research Communications, 2023).

Starred links: 1 amine or outer side, 2 acyl side, 3 side chain; linkers in the order of their positions; H or OH if unused. Positions of bridges follow the written chain, without caps; N, C: chain ends. Non-standard residues stand in square brackets, D forms with d. Residues, ends and D or L forms follow the SMILES beside them. Chains are numbered I, II in the order given. Hexamethylenediamine = C(CCCN[*:2])CCN[*:1]; Dip = N[C@H](C(=O)O)C(c1ccccc1)c1ccccc1; Chg = N[C@H](C(=O)O)C1CCCCC1; NMeA = CN[C@@H](C)C(=O)O

One test concerns BE(2)-C and KELLY cells. The test is described as follows: Apoptosis (cleaved PARP/caspase-3, Caspase-Glo 3/7). Format: cell-based, Human. The settings on record: 10 µmol/L. As to the method:
The determination of caspase-3/7 levels as an indication for apoptosis activity was performed using a Caspase-Glo 3/7 assay kit from Promega according to manufacturer's instructions. Cells were seeded at 1 × 10^4 cells per well and treated with 10 µmol/L of IAP antagonists for various indicated timings, followed by bioluminescence measurement using luminescent plate reader, Tecan Infinite200 Pro. The activity of apoptosis was also measured by flow cytometry using the Dead Cell Apoptosis Kit with Annexin V FITC and PI (Thermo Fisher Scientific) according to manufacturer's instructions. Cells harvested from lentiviral infection were subjected to Annexin V (2.5 µL) and PI (40 ng/mL, 0.5 µL) staining, followed by flow cytometric analysis using BD LSRFortessa cell analyzer with excitation/emission spectra of 494 nm/518 nm for FITC and 535 nm/617 nm for PI.
FIGURE 2 Specific loss of XIAP expression, not c-IAP1, is required for mediating apoptosis in high-risk neuroblastoma cells. A, Summary of IAP antagonists’ efficacy in killing neuroblastoma cells. […] C, Graphical representation showing the fold change of caspase-3/7 activity relative to vehicle controls after treatment with 10 µmol/L of either A4, B3, or BV6 at indicated timings (data were expressed as mean ± SD of three independent experiments conducted in duplicates; *, P < 0.05). […]

The next test has as its system XIAP and c-IAP1. The test is described as follows: Immunoblot analysis of XIAP and c-IAP1 expression. Format: cell-based, Human. The settings on record: 10 µmol/L. The source says:
FIGURE 2 Specific loss of XIAP expression, not c-IAP1, is required for mediating apoptosis in high-risk neuroblastoma cells. A, Summary of IAP antagonists’ efficacy in killing neuroblastoma cells. The IAP antagonists were ranked on the basis of the average potency of killing (IC50) and specificity of killing toward only neuroblastoma cells: (i) A4, (ii) B3, (iii) BV6, (iv) LCL161, (v) CUDC-427, (vi) Debio 1143. B, Immunoblot analysis of c-IAP1, XIAP, PARP, and cleaved caspase-3 expression in neuroblastoma cell lines, BE(2)-C and KELLY, and noncancerous normal tissue cell line, HS5, after treatment with 10 µmol/L of either A4, B3, or BV6 at indicated timings (three independent replicates). C, Graphical representation showing the fold change of caspase-3/7 activity relative to vehicle controls after treatment with 10 µmol/L of either A4, B3, or BV6 at indicated timings (data were expressed as mean ± SD of three independent experiments conducted in duplicates; *, P < 0.05). D, Morphology of cells 48 hours posttreatment with 10 µmol/L of either A4, B3, or BV6. […]
Whole cell lysates harvested were lysed in EBC buffer (pH 8.0 of 50 mM Tris, 0.5% NP-40, 120 mM sodium chloride) containing protease inhibitors and protein concentration were quantified using the Bradford assay (Thermo Fisher Scientific). […]

With `CN[C@@H](C)C(=O)N[C@H](C(=O)N1CCC[C@H]1C(=O)N[C@H](C(=O)NCCCCCCNC(=O)[C@@H](NC(=O)[C@@H]1CCCN1C(=O)[C@@H](NC(=O)[C@H](C)NC)C1CCCCC1)C(c1ccccc1)c1ccccc1)C(c1ccccc1)c1ccccc1)C1CCCCC1` [BV6] (I: H-[NMeA][Chg]P[Dip] / II: H-[NMeA][Chg]P[Dip]; linker I:C-II:C via Hexamethylenediamine), the “apoptosis (PARP and caspase-3 cleavage, caspase-3/7 activity)” value in the test with BE(2)-C and KELLY cells is on record as “minimal or no apoptosis”. The “XIAP and c-IAP1 expression (immunoblot)” value with XIAP and c-IAP1 (BE(2)-C and KELLY cells) is reported as “loss of c-IAP1 expression with no change in XIAP expression”; with XIAP and c-IAP1 (HS5 cells), “loss of c-IAP1 expression with no changes in XIAP expression”.
